Reference: ChEMBL document CHEMBL1201862, “PubChem BioAssay data set” (2004)
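Each compound was tested at five concentrations against cells in 96-well plates for 48 hours. GI50 is the concentration that inhibits growth by half.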 Calls of active or inactive are those of the source. No stated cut-off is given here; in the data, active = GI50 up to about 1.1 µM and inactive = higher.

Legend:
Assay in all cases: NCI anticancer screen, dose series, 48 h
786-0 = system: 786-0
A498 = system: A498
A549 = system: A549
ACHN = system: ACHN
CCRF-CEM = system: CCRF-CEM
COLO 205 = system: COLO 205
DLD-1 = system: DLD-1
DMS-114 = system: DMS-114
DMS-273 = system: DMS-273
EKVX = system: EKVX
HCC 2998 = system: HCC 2998
HCT-116 = system: HCT-116
HCT-15 = system: HCT-15
HL-60 = system: HL-60
HOP-18 = system: HOP-18
HOP-62 = system: HOP-62
HT-29 = system: HT-29
IGROV-1 = system: IGROV-1
K562 = system: K562
KM-20L2 = system: KM-20L2
KM12 = system: KM12
LOX IMVI = system: LOX IMVI
LXFL 529 = system: LXFL 529
M14 = system: M14
M19-MEL = system: M19-MEL
MOLT-4 = system: MOLT-4
Malme-3M = system: Malme-3M
NCI-H226 = system: NCI-H226
NCI-H23 = system: NCI-H23
NCI-H460 = system: NCI-H460
NCI-H522 = system: NCI-H522
OVCAR-3 = system: OVCAR-3
OVCAR-5 = system: OVCAR-5
OVCAR-8 = system: OVCAR-8
RPMI-8226 = system: RPMI-8226
RXF 393 = system: RXF 393
SF-295 = system: SF-295
SF-539 = system: SF-539
SK-MEL-28 = system: SK-MEL-28
SK-MEL-2 = system: SK-MEL-2
SK-MEL-5 = system: SK-MEL-5
SK-OV-3 = system: SK-OV-3
SN12C = system: SN12C
SNB-19 = system: SNB-19
SNB-75 = system: SNB-75
SNB-78 = system: SNB-78
SR = system: SR
SW-620 = system: SW-620
TK-10 = system: TK-10
U-251 = system: U-251
UACC-257 = system: UACC-257
UACC-62 = system: UACC-62
UO-31 = system: UO-31
XF498 = system: XF498

For `C1CNCCNCCNCCN1`, the GI50 (786-0) was > 100 µM (inactive), the GI50 (A498) was > 100 µM (inactive) and the GI50 (A549) was > 100 µM (inactive). For the same compound, the GI50 (ACHN) was > 100 µM (inactive), the GI50 (CCRF-CEM) was > 100 µM (inactive) and the GI50 (COLO 205) was 37.5 µM (inactive). For the same compound, the GI50 (DLD-1) was 41.3 µM (inactive), the GI50 (DMS-114) was > 100 µM (inactive) and the GI50 (DMS-273) was 53.8 µM (inactive). The GI50 (EKVX) was > 100 µM (inactive), the GI50 (HCC 2998) was 64.3 µM (inactive) and the GI50 (HCT-116) was 50.1 µM (inactive). For the same compound, the GI50 (HCT-15) was > 10 µM, the GI50 (HL-60) was 62.7 µM (inactive) and the GI50 (HOP-18) was > 100 µM (inactive). For the same compound, the GI50 (HOP-62) was > 100 µM (inactive), the GI50 (HT-29) was 63.5 µM (inactive) and the GI50 (IGROV-1) was > 100 µM (inactive). The GI50 (K562) was 70.5 µM (inactive), the GI50 (KM-20L2) was 82.6 µM (inactive) and the GI50 (KM12) was > 100 µM (inactive). The GI50 (LOX IMVI) was > 100 µM (inactive), the GI50 (LXFL 529) was > 100 µM (inactive) and the GI50 (M14) was > 100 µM (inactive). For the same compound, the GI50 (M19-MEL) was > 100 µM (inactive), the GI50 (MOLT-4) was 64.6 µM (inactive) and the GI50 (Malme-3M) was > 100 µM (inactive). For the same compound, the GI50 (NCI-H226) was > 100 µM (inactive), the GI50 (NCI-H23) was > 100 µM (inactive) and the GI50 (NCI-H460) was 35.8 µM (inactive). For the same compound, the GI50 (NCI-H522) was > 100 µM (inactive), the GI50 (OVCAR-3) was 72.6 µM (inactive) and the GI50 (OVCAR-5) was > 100 µM (inactive). For the same compound, the GI50 (OVCAR-8) was > 100 µM (inactive), the GI50 (RPMI-8226) was > 100 µM (inactive) and the GI50 (RXF 393) was > 100 µM (inactive). For the same compound, the GI50 (SF-295) was > 100 µM (inactive), the GI50 (SF-539) was > 100 µM (inactive) and the GI50 (SK-MEL-28) was > 100 µM (inactive). For the same compound, the GI50 (SK-MEL-2) was > 100 µM (inactive), the GI50 (SK-MEL-5) was > 100 µM (inactive) and the GI50 (SK-OV-3) was > 100 µM (inactive). For the same compound, the GI50 (SN12C) was > 100 µM (inactive), the GI50 (SNB-19) was > 100 µM (inactive) and the GI50 (SNB-75) was > 100 µM (inactive). The GI50 (SNB-78) was > 100 µM (inactive), the GI50 (SR) was 51.6 µM (inactive) and the GI50 (SW-620) was 52.2 µM (inactive). The GI50 (TK-10) was > 100 µM (inactive), the GI50 (U-251) was 24 µM (inactive) and the GI50 (UACC-257) was > 100 µM (inactive). For the same compound, the GI50 (UACC-62) was > 100 µM (inactive), the GI50 (UO-31) was > 100 µM (inactive) and the GI50 (XF498) was 0.14 µM (active).
